Experimental findings from patent US20140288040A1, “SUBSTITUTED BENZYLAMINE COMPOUNDS, THEIR USE IN MEDICINE, AND IN PARTICULAR THE TREATMENT OF HEPATITIS C VIRUS (HCV) INFECTION” (ASTEX THERAPEUTICS LIMITED, priority 2011, published 2014) are described below.

Molecules are shown by their SMILES. Structures can show the parent of a compound that is named as a salt. Where two headings read alike, the source gives them in different places.

The target in experiment [1] is T1, HCV NS3 protease (full length NS34a) (Hepatitis C virus genotype 1b, UniProt P26663).
T1 construct: The protease activity of the full length NS34a was measured using a FRET-based assay; made in house
T1 sequence (P26663 1658-1711): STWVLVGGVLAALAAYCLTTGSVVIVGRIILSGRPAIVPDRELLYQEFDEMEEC
T1 sequence (P26663 1027-1657): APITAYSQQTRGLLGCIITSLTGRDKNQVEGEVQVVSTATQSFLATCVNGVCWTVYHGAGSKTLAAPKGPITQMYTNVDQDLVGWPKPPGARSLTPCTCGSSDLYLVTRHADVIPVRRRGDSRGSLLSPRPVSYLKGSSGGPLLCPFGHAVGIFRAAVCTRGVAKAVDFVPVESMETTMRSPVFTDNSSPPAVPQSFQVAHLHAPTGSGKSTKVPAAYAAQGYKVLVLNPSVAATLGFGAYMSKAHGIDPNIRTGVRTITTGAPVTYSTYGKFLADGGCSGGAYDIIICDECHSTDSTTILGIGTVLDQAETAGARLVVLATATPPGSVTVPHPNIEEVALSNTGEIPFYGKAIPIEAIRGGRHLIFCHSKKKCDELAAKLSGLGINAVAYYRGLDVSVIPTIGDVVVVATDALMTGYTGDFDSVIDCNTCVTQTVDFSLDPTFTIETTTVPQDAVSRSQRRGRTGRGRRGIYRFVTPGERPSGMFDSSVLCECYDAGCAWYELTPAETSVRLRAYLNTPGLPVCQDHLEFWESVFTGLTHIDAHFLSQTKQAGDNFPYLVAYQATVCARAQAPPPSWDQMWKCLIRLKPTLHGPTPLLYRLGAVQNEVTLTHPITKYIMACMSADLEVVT
In words: HCV NS3 protease assay (FRET, full length NS34a). Type of experiment: biochemical. Conditions: for inhibition at 0.03 µM: read-out: Activity % inhibition @ 0.03 μM, 0.03 μM compound. The gist of the method:
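FRET readout over 30 minutes at room temperature, with IC50 fitted to initial rates from replicate curves. Enzyme was full-length NS34a; substrate a peptide from the NS4AB cleavage site labelled with QXL520 and 5-FAMsp; buffer 50 mM Tris pH8 containing 20 mM DTT, 1% CHAPS, 10% glycerol and 5% DMSO.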

Experiment [2] relates to HCV subgenomic replicon in Huh-7 cells. In words: Replicon assay, EC50 luciferase readout. Type of experiment: cell-based, hepatitis C virus (HCV). The following applies: Hepatitis C virus. The gist of the method:
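Huh-7 cells carrying a subgenomic HCV replicon (NS3-NS5b, firefly luciferase-neo fusion) were treated with compound for 72 h at 37°C, 5% CO2. EC50 derived from Bright-Glo luciferase signal as a proxy for HCV RNA; cell viability measured in parallel by Alamar blue.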
For orientation: Replicon systems follow genome replication, usually without infectious particles.

For experiment [3], the system named is HCV replicon GT1b RNA in Huh-7 cells. Description: Quantitative RT-PCR of HCV replicon RNA levels. The experiment is classed as cell-based, hepatitis C virus (HCV).
Method: In order to directly determine HCV replicon RNA levels in HCV replicon bearing Huh-7 cells the cells were seeded at 100,000 cellswell, in 6 well tissue culture plates, and allowed to attach overnight before compound addition at a final DMSO concentration of 0.1%. At 72 hours post compound addition RNA was extracted from DMSO-only treated and compound-treated cells using a Qiagen RNeasy kit (Qiagen) according to the manufacturer's instructions. All samples were then normalized for total RNA concentration. […] Briefly, sample RNA (2 ng) was combined with the NS5A primers listed above at a final concentration of 1 μM and an equal volume of 2× Quantitect SYBR Green RT-PCR Master Mix. […] Amplification of HPRT RNA for each sample was determined in separate reactions. The amount of input RNA from the untreated control sample was varied in order to generate a standard curve by which the relative levels of replicon RNA from each treated sample could be expressed as fold changes relative to the untreated control sample. […] Values were calculated from the average of three independent experiments, where log10 [sequence] levels at day 3, 7, 10, and 14 post compound treatment were subtracted from log10 [sequence] […]
The mark [4] stands for this setting: protease activity of full length NS34a, FRET peptide substrate, read-out: Activity IC50.
The mark [5] stands for this setting: Huh-7, 72 h, Huh-7 replicon cells, 72 h, single value, or second value of a pair x:y, read-out: Activity EC50 (μM) (EC50 luciferase readout).

Usually IC50 stands for the concentration needed to halve the response being measured. In general, EC50 refers to the concentration at which the effect is half-maximal. Usually inhibition stands for how much of the control response was suppressed.

On to `CC[C@@H](N[C@@H](C)CC(N)=O)c1ccc(Cl)c(Oc2ccccc2)c1F` (single isomer, unassigned) [Example 88], for which the IC50 in experiment [1] (setting [4]) amounted to 100 nM. Also, the EC50 in experiment [2] (setting [5]) came out at 0.4 µM; in experiment [2] (Huh-7, replicon assay, set in line with previous observations, read-out: pre-determined EC50 set for the combination experiments), 0.3 µM. In addition, in experiment [3] (10x EC50, day 3, 7, 10 and 14, compound alone), the “decline in HCV replicon RNA over time” value was “comparable over time with Danoprevir and VX-222”. Also, in experiment [3] (10x EC50, in combination with either Danoprevir or VX-222), the “decline in HCV replicon RNA, combination” value is reported as “largest declines”.

For `CC[C@@H](N[C@@H](C)CC(N)=O)c1ccc(Cl)c(Oc2ccc(N)c(Cl)c2)c1F` [Example 266C, (S)-3-{(R)-1-[3-(4-Amino-3-chloro-phenoxy)-4-chloro-2-fluoro-phenyl]-propyl-amino}-butyramide.dihydrochloride], the IC50 in experiment [1] (setting [4]) came to 87 nM. In addition, the EC50 in experiment [2] (setting [5]) worked out at 0.023 µM.

Regarding `CC[C@@H](N[C@H](C)CC(N)=O)c1ccc(Cl)c(Oc2ccc(N)c(Cl)c2)c1F` [Example 267], the IC50 in experiment [1] (setting [4]) came out at 480 nM. For the same molecule, the concentration for a half-maximal effect (EC50) in experiment [2] (setting [5]) is above 10 µM.

With `N[C@H]1CC[C@H](NCc2ccc(Cl)c(Oc3ccccc3)c2F)CC1` [Example 271, trans-N-(4-Chloro-2-fluoro-3-phenoxy-benzyl)-cyclohexane-1,4-diamine. dihydrochloride], the concentration for half-maximal inhibition (IC50) in experiment [1] (setting [4]) was 260 nM. Also, in experiment [2] (setting [5]), the EC50 came out at 0.34 µM.

Regarding `Cc1ccc(CN[C@H]2CC[C@H](N)CC2)c(F)c1Oc1ccccc1` [Example 272, trans-N-(2-Fluoro-4-methyl-3-phenoxy-benzyl)-cyclohexane-1,4-diamine.dihydrochloride], in experiment [1] (setting [4]), the IC50 turned out to be 880 nM. Also, the EC50 in experiment [2] (setting [5]) turned out to be 5.3 µM.

For the molecule `CCN(Cc1ccc(Cl)c(Oc2ccccc2)c1F)[C@H]1CC[C@H](N)CC1` [Example 273B, trans-N-(4-Chloro-2-fluoro-3-phenoxy-benzyl)-N-ethyl-cyclohexane-1,4-diamine.dihydrochloride], the IC50 in experiment [1] (setting [4]) was determined as 2300 nM. The EC50 in experiment [2] (setting [5]) was found to be 0.76 µM.

In the case of `CC[C@H](Nc1ncc[nH]1)c1ccc(Cl)c(Oc2ccccc2)c1F` [Example 275, [(S)-1-(4-Chloro-2-fluoro-3-phenoxy-phenyl)-propyl]-(1H-imidazol-2-yl)-amine.hydrochloride], the 50% inhibitory concentration (IC50) in experiment [1] (setting [4]) worked out at 410 nM. Further, the EC50 in experiment [2] (setting [5]) was above 10 µM.

For `C[C@@H](CC(=O)NCCN)N[C@H](CC1CCOCC1)c1ccc(Cl)c(Oc2ccccc2)c1F` [Example 277, (S)—N-(2-Amino-ethyl)-3-[(R)-1-(4-chloro-2-fluoro-3-phenoxy-phenyl)-2-(tetrahydro-pyran-4-yl)-ethylamino]-butyramide.dihydrochloride], in experiment [1] (setting [4]), the IC50 is 110 nM. The EC50 in experiment [2] (setting [5]) is 1 µM.

As for `N[C@H]1CC[C@H](NCc2cccc(Oc3ccccc3)c2)CC1` [Example 280], the IC50 in experiment [1] (setting [4]) worked out at 5300 nM. Moreover, the EC50 in experiment [2] (setting [5]) was determined as 0.4 µM.

Take `N[C@H]1CC[C@@H](NCc2cccc(Oc3ccccc3)c2)CC1` [Example 281]: the IC50 in experiment [1] (setting [4]) stood at 10000 nM. The concentration giving a half-maximal response (EC50) in experiment [2] (setting [5]) came to 0.79 µM.

`N[C@H]1CC[C@H](NCc2ccc(F)c(Oc3ccccc3)c2F)CC1` [Example 282]: the IC50 in experiment [1] (setting [4]) is 730 nM. Further, the concentration for a half-maximal effect (EC50) in experiment [2] (setting [5]) stood at 0.37 µM.

On to `N[C@H]1CC[C@@H](NCc2ccc(F)c(Oc3ccccc3)c2F)CC1` [Example 283], for which the IC50 in experiment [1] (setting [4]) amounted to 750 nM. Also, the EC50 in experiment [2] (setting [5]) stood at 0.27 µM.

`CS(=O)(=O)Nc1cccc(Oc2c(F)ccc(CN[C@H]3CC[C@H](N)CC3)c2F)c1` [Example 284]: the IC50 in experiment [1] (setting [4]) was found to be 1400 nM. Also, the EC50 in experiment [2] (setting [5]) is above 10 µM.

On to `Cc1cc(Oc2c(F)ccc(CN[C@H]3CC[C@H](N)CC3)c2F)ccc1N` [Example 287], for which the 50% inhibitory concentration (IC50) in experiment [1] (setting [4]) was 440 nM. For the same molecule, the EC50 in experiment [2] (setting [5]) was found to be 6.5 µM.

On to `Cc1cc(Oc2c(F)ccc(CN[C@H]3CC[C@@H](N)CC3)c2F)ccc1N` [Example 288], for which the IC50 in experiment [1] (setting [4]) was determined as 1400 nM. In addition, in experiment [2] (setting [5]), the EC50 was 1.4 µM.

For the molecule `N[C@H]1CC[C@H](CNCc2ccc(Cl)c(Oc3ccccc3)c2F)CC1` [Example 289], in experiment [1] (setting [4]), the IC50 was determined as 1100 nM. In addition, the EC50 in experiment [2] (setting [5]) was 0.18 µM.

Consider `N[C@H]1CC[C@H](NCc2ccc(F)c(Oc3ccccc3)c2Cl)CC1` [Example 290], for which the IC50 in experiment [1] (setting [4]) turned out to be 3400 nM. The EC50 in experiment [2] (setting [5]) is 10 µM.

In the case of `CC[C@@H](N[C@@H](C)CC(N)=O)c1ccc(Cl)c(Oc2ccc(C)nc2)c1F` [Example 313], the IC50 in experiment [1] (setting [4]) came out at 150 nM. Further, in experiment [2] (setting [5]), the 50% effective concentration (EC50) is above 10 µM.

Take `CCNCCNC(=O)C[C@H](C)N[C@H](CC)c1ccc(Cl)c(Oc2ccccc2)c1F` [Example 316]: in experiment [1] (setting [4]), the IC50 was 400 nM. In addition, the EC50 in experiment [2] (setting [5]) is above 10 µM.

`CC[C@@H](N[C@@H](C)CC(N)=O)c1ccc(Cl)c(Oc2ccc(-c3cnco3)c(C)c2)c1F` [Example 317]: in experiment [1] (setting [4]), the half-maximal inhibitory concentration (IC50) worked out at 450 nM. The EC50 in experiment [2] (setting [5]) was determined as 2.7 µM.

For `CC[C@@H](N[C@@H](C)CC(=O)N[C@H]1C[C@H](N)C1)c1ccc(Cl)c(Oc2ccccc2)c1F` [Example 319], the IC50 in experiment [1] (setting [4]) was determined as 3500 nM. Moreover, in experiment [2] (setting [5]), the EC50 is 8.6 µM.

For the molecule `CC[C@@H](N[C@@H](C)CC(N)=O)c1ccc(Cl)c(Oc2ccc3c(c2)C(C)(C)CN3)c1F` [Example 322], in experiment [1] (setting [4]), the half-inhibitory concentration (IC50) turned out to be 270 nM. The EC50 in experiment [2] (setting [5]) was 1.2 µM.

Regarding `CC[C@H](N[C@@H](C)CC(N)=O)c1ccc(Cl)c(Oc2ccccc2)c1Cl` [Example 324], in experiment [1] (setting [4]), the IC50 is 1800 nM. The EC50 in experiment [2] (setting [5]) was above 10 µM.

Take `CC[C@H](N[C@H](C)CC(N)=O)c1ccc(Cl)c(Oc2ccccc2)c1Cl` [Example 325]: the IC50 in experiment [1] (IC50 values of 10-150 μM against the protease activity of the full length NS34a, or at least 40% inhibition of protease activity at a concentration of 100 μM) fell in the range of 10000 to 150000 nM. Further, in experiment [2] (setting [5]), the EC50 is above 10 µM.

`C[C@@H](CC(=O)NCCN)NCc1ccc(Cl)c(Oc2ccccc2)c1F` [Example 329]: the inhibition at 0.03 µM in experiment [1] stood at 57%. Moreover, in experiment [2] (setting [5]), the EC50 was 4 µM.

As for `CC[C@@H](N[C@@H](C)C(=O)NCCCN)c1ccc(Cl)c(Oc2ccccc2)c1F` [Example 331], in experiment [1], the inhibition at 0.03 µM came to 49.5%. Further, the concentration for a half-maximal effect (EC50) in experiment [2] (setting [5]) is above 10 µM.

`CC[C@@H](N[C@@H](C)CC(N)=O)c1ccc(Cl)c(Oc2ccc(N)c(F)c2)c1F` [Example 333]: the IC50 in experiment [1] (setting [4]) came out at 61 nM. Besides, the EC50 in experiment [2] (setting [5]) turned out to be 0.057 µM.
